Assay results as given in ChEMBL document CHEMBL1772962, “In vitro and in vivo evaluation of 6-aminopyrazolyl-pyridine-3-carbonitriles as JAK2 kinase inhibitors” (Bioorg Med Chem Lett, 2011).
Converted amounts (≈) assume the structure as drawn. The source made the active and inactive calls. The calls are words filed in the database; no cut-off is given here.

Columns and labels:
[1] = target: T1, Tyrosine-protein kinase JAK2 (Homo sapiens, UniProt O60674); test: Inhibition of JAK2 after 60 min
[2] = target: T2, Tyrosine-protein kinase JAK3 (Homo sapiens, UniProt P52333); test: Inhibition of JAK3 after 60 min
T2 sequence (P52333 whole entry): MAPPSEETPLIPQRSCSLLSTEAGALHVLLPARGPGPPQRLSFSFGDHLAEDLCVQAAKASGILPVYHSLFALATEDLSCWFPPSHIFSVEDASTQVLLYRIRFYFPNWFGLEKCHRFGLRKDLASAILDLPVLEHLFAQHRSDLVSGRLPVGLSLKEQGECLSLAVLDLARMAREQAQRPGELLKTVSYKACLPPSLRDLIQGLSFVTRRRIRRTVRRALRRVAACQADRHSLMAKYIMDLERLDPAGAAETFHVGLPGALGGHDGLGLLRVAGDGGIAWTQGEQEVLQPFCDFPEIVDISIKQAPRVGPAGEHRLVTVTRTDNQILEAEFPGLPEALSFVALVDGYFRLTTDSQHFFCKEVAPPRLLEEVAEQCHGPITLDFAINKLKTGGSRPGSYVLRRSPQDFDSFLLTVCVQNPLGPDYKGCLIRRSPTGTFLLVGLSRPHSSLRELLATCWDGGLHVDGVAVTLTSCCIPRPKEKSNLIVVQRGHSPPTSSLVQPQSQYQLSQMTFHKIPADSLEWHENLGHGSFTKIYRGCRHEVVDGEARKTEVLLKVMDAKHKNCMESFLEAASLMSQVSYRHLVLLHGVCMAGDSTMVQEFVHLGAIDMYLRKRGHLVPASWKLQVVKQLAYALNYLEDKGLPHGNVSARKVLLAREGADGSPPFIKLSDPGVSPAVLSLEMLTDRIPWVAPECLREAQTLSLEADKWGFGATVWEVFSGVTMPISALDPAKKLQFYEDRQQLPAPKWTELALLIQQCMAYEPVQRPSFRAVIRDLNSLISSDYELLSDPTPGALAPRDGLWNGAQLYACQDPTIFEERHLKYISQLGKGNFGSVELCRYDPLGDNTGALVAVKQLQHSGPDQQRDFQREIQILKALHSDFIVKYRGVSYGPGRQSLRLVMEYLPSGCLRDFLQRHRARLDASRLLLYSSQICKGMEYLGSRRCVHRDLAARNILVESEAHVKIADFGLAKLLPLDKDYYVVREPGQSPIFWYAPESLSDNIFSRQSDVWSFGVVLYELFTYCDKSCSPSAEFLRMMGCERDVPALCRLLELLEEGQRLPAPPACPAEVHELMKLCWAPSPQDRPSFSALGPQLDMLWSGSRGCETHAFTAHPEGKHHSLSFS

[3] = target: T3, Tyrosine-protein kinase JAK3 (Homo sapiens) (UniProt P52333); test: Inhibition of TEL-fused JAK3-induced proliferative activity against mouse BA/F3 cells; assay type: cell-based; conditions: BaF3
T3 sequence (whole entry): T2 sequence (P52333 whole entry)

[4] = Half life in Han Wistar rat at 10 mg/kg, po and 3 mg/kg, iv; assay type: ADME, organism-based; conditions: in vivo
[5] = Growth inhibition of human SET2 cells expressing JAK2 V617F mutant after 48 hrs by alamar blue assay; assay type: functional; conditions: SET-2, 48 h
[6] = Intrinsic clearance in Han Wistar rat microsomes at 10 mg/kg, po and 3 mg/kg, iv; assay type: ADME, Microsome
[7] = Oral bioavailability in Han Wistar rat at 10 mg/kg; assay type: ADME, organism-based; conditions: in vivo
[8] = Aqueous solubility of compound; assay type: physicochemical
[9] = Clearance in Han Wistar rat at 10 mg/kg, po and 3 mg/kg, iv; assay type: ADME, organism-based; conditions: in vivo
[10] = target: T1, Tyrosine-protein kinase JAK2; test: Inhibition of TEL-fused JAK2-induced proliferation of mouse BA/F3 cells; assay type: cell-based; conditions: BaF3
[11] = Volume of distribution at steady state in Han Wistar rat at 10 mg/kg, po and 3 mg/kg, iv; assay type: ADME, organism-based; conditions: in vivo, read-out: Vdss
[12] = target: Receptor-type tyrosine-protein kinase FLT3 (Homo sapiens, UniProt P36888, D835Y); test: Inhibition of human FLT3 D835Y mutant
Mus musculus [13] = test: Inhibition of STAT5 phosphorylation in NCr mouse tansplanted with TEL-JAK2 expressing mouse BA/F3 cells at 10 mg/kg, po upto 2 hrs; assay type: functional, organism-based; design: dose 10 mg/kg; conditions: BaF3
[14] = Oral bioavailability in dog; assay type: ADME, organism-based, Canis lupus familiaris; conditions: in vivo
[15] = target: T1, Tyrosine-protein kinase JAK2; test: Inhibition of human JAK2
[16] = target: T2, Tyrosine-protein kinase JAK3; test: Inhibition of human JAK3
Mus musculus [17] = test: Inhibition of STAT5 phosphorylation in NCr mouse tansplanted with TEL-JAK2 expressing mouse BA/F3 cells at 2.5 mg/kg, po upto 2 hrs; assay type: functional, organism-based; design: dose 2.5 mg/kg; conditions: BaF3
[18] = Plasma concentration in NCr mouse tansplanted with TEL-JAK2 expressing mouse BA/F3 cells at 10 mg/kg, po after 6 hrs; assay type: ADME, organism-based, BaF3; design: dose 10 mg/kg, route oral
[19] = target: T4, Muscle, skeletal receptor tyrosine-protein kinase (Homo sapiens, UniProt O15146); test: Inhibition of human MuSk
T4 sequence (O15146 whole entry): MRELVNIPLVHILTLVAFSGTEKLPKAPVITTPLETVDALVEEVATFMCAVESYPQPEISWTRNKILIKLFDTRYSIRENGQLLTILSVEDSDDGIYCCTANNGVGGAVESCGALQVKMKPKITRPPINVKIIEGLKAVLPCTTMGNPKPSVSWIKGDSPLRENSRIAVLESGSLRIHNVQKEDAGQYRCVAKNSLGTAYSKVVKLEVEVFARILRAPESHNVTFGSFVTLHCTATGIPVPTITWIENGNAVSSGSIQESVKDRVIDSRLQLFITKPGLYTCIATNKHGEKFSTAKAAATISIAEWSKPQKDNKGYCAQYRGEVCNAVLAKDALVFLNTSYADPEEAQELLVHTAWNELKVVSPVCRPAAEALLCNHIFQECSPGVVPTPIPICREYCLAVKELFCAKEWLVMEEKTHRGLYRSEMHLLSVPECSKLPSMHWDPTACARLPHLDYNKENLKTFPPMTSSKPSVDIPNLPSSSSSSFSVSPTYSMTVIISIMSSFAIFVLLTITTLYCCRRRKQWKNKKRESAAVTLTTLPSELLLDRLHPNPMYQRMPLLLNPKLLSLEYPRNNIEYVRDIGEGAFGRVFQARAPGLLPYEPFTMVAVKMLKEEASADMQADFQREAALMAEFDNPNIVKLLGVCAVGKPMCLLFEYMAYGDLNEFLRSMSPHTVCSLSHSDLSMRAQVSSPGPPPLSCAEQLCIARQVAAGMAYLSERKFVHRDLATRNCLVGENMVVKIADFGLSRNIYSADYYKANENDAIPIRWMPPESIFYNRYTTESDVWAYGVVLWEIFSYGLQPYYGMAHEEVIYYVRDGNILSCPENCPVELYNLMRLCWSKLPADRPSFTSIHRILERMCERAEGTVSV

[20] = target: T5, High affinity nerve growth factor receptor (Homo sapiens, UniProt P04629); test: Inhibition of human truncated TrkA in human MCF10a cells by time-resolved fluorimetry; assay type: cell-based
Target sequence in this assay (P04629 33-796 limits assumed): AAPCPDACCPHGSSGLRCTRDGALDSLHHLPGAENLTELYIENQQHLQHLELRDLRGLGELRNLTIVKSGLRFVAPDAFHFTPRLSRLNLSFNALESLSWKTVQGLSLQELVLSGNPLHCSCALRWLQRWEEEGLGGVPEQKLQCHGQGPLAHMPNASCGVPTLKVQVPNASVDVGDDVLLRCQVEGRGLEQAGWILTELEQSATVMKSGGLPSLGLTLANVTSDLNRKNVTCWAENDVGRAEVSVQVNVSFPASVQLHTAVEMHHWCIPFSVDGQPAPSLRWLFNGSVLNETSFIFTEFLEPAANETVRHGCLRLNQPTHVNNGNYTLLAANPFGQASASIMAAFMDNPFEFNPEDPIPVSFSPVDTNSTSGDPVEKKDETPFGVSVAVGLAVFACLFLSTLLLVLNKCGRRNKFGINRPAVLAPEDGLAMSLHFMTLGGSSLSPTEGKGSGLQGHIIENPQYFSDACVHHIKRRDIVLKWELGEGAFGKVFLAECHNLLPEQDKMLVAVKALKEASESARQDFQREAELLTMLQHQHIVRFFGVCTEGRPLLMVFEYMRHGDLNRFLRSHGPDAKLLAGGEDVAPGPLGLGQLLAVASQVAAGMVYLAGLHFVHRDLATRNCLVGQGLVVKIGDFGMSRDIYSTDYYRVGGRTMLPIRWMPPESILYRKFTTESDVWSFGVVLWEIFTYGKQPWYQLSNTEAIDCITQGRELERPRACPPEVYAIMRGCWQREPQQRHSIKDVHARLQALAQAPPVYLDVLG

Mus musculus [21] = test: Inhibition of STAT5 phosphorylation in NCr mouse tansplanted with TEL-JAK2 expressing mouse BA/F3 cells at 5 mg/kg, po upto 2 hrs; assay type: functional, organism-based; design: dose 5 mg/kg; conditions: BaF3
[22] = Free drug level in plasma of NCr mouse tansplanted with TEL-JAK2 expressing mouse BA/F3 cells at 10 mg/kg, po after 6 hrs; assay type: ADME, organism-based, BaF3; design: dose 10 mg/kg, route oral; conditions: in vivo
[23] = Fraction unbound in human plasma; assay type: ADME, cell-free
[24] = Half life in dog; assay type: ADME, organism-based, Canis lupus familiaris; conditions: in vivo
[25] = target: Tyrosine-protein kinase Lck (Homo sapiens, UniProt P06239); test: Inhibition of human Lck
Sequence of Tyrosine-protein kinase Lck (P06239 whole entry): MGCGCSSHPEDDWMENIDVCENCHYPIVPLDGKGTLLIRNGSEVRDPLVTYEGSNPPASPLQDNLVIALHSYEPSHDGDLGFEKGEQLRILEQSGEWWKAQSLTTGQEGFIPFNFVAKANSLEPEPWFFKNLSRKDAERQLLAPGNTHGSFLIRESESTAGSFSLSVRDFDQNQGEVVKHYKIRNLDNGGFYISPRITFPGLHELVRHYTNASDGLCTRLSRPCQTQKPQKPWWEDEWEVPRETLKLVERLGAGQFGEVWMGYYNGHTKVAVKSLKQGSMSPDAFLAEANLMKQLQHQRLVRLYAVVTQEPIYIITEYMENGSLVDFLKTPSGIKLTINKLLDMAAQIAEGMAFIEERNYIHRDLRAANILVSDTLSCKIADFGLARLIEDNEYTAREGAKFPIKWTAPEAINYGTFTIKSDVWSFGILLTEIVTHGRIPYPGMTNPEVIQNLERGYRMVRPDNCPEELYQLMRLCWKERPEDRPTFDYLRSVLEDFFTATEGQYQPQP

Mus musculus [26] = test: Inhibition of STAT5 phosphorylation in NCr mouse tansplanted with TEL-JAK2 expressing mouse BA/F3 cells at 10 mg/kg, po measured at 6 hrs; assay type: functional; conditions: BaF3, 6 h
[27] = Plasma concentration in NCr mouse tansplanted with TEL-JAK2 expressing mouse BA/F3 cells at 10 mg/kg, po after 2 hrs; assay type: ADME, organism-based, BaF3; design: dose 10 mg/kg, route oral
[28] = Clearance in dog; assay type: ADME, organism-based, Canis lupus familiaris; conditions: in vivo
Ephrin type-B receptor 2 = target: T6, Ephrin type-B receptor 2 (Homo sapiens, UniProt P29323); test: Inhibition of human EphB2
T6 sequence (P29323 whole entry): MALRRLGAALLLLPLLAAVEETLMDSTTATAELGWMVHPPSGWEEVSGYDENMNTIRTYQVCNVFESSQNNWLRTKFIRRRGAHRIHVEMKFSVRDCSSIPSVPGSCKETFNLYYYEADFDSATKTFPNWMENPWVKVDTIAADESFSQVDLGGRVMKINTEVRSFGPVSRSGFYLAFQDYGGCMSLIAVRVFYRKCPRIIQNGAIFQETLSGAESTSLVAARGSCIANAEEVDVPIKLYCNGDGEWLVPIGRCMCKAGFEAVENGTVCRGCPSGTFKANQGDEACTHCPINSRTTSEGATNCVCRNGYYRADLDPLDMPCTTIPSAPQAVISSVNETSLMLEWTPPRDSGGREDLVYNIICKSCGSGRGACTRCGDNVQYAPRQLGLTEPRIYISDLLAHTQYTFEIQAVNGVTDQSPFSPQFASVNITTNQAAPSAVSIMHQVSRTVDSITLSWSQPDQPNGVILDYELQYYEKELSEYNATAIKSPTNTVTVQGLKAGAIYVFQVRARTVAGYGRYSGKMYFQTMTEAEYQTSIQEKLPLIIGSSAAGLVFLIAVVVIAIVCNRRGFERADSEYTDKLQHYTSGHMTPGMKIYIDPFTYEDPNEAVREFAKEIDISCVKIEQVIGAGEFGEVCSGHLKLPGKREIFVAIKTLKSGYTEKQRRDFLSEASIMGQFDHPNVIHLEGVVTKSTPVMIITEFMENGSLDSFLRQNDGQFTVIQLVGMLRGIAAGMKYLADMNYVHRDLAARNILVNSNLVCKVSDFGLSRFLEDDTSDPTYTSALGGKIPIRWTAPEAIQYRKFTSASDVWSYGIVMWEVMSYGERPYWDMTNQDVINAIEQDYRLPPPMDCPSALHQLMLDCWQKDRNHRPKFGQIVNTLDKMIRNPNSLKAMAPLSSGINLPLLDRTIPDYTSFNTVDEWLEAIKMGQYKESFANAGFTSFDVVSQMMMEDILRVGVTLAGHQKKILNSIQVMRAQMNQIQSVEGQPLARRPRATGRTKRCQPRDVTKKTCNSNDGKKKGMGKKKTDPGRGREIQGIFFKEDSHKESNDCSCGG

[29] = target: T5, High affinity nerve growth factor receptor; test: Inhibition of human TRKA
Target sequence in this assay (P04629 whole entry, the tested form may be a part): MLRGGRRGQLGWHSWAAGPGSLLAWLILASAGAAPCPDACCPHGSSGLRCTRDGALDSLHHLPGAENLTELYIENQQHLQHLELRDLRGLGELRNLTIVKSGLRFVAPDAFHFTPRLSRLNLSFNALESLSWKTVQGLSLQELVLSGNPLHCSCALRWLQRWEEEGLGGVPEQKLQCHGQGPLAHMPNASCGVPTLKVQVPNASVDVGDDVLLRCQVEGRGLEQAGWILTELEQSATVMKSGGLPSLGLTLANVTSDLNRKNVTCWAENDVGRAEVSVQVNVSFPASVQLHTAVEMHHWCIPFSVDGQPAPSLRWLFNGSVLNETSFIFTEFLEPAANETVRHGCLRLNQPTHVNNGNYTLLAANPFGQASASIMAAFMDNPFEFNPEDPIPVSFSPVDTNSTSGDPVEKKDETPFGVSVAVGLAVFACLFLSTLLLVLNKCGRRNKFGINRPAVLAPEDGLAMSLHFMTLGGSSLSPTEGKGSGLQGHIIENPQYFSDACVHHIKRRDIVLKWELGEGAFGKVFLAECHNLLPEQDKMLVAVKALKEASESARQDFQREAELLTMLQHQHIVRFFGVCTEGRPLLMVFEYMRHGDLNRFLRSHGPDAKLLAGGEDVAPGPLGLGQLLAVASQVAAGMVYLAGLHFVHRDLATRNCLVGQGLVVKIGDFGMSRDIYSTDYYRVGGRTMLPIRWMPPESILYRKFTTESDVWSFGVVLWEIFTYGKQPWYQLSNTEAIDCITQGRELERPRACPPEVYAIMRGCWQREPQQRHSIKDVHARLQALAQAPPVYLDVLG

Mus musculus [30] = test: Inhibition of STAT5 phosphorylation in NCr mouse tansplanted with TEL-JAK2 expressing mouse BA/F3 cells at 5 mg/kg, po measured at 6 hrs; assay type: functional; conditions: BaF3, 6 h

T1 sequence (O60674 whole entry): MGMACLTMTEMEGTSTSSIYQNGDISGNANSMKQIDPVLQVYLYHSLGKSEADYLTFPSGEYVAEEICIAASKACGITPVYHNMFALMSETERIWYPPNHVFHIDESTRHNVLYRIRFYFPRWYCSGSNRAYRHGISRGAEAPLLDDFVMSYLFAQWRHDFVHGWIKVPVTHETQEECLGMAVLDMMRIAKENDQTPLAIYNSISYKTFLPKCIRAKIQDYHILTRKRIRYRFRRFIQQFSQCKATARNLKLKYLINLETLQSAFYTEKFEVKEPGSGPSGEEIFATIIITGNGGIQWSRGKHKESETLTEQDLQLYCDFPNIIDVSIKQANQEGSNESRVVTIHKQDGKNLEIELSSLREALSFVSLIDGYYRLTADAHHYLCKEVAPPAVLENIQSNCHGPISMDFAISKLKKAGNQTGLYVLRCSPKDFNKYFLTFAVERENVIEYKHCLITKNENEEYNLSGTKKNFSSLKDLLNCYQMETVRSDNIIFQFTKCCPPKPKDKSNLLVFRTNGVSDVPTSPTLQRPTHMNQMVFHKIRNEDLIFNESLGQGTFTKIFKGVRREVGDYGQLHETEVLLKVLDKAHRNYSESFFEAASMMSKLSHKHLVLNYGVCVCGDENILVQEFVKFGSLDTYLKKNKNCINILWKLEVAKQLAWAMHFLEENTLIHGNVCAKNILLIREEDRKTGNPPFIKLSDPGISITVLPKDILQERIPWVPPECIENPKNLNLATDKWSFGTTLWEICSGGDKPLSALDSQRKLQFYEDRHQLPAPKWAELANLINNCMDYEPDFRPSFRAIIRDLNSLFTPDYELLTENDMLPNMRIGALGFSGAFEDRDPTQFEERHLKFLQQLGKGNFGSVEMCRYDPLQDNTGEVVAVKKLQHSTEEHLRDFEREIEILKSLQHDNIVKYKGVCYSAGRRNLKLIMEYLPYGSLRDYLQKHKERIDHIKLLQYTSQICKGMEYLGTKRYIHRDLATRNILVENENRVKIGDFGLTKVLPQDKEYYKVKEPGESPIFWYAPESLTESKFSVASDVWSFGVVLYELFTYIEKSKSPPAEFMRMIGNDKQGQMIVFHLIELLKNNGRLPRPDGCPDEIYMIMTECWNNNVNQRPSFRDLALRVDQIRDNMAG

Row | SMILES | IC50 [1] [nM] | IC50 [2] [nM] | GI50 [3] [nM] | half-life [4] [min] | microsomal CLint [6] [µL/min/mg] | bioavailability [7] [%] | solubility [8] [µM] | clearance [9] [mL/min/kg] | GI50 [10] [nM] | Vd [11] [L/kg] | also measured
1 | CC(C)Oc1cc(Nc2nc(N[C@@H](C)c3ccc(F)cc3)c(C#N)cc2F)n[nH]1 | 688 | 1740 | – | – | – | – | – | – | – | – | –
2 | C[C@H](Nc1nc(Nc2cc(C3CC3)[nH]n2)c(F)cc1C#N)c1ccc(F)cc1 | 3 | 183 | 1000 | – | – | – | – | – | 170 | – | –

Continued, in another order:

Row | IC50 [1] [nM] | IC50 [2] [nM] | GI50 [3] [nM] | half-life [4] [min] | microsomal CLint [6] [µL/min/mg] | bioavailability [7] [%] | solubility [8] [µM] | clearance [9] [mL/min/kg] | GI50 [10] [nM] | Vd [11] [L/kg] | SMILES | also measured
3 | < 3 | 9 | 350 | 342 | 17 | 44 | 13 (≈ 4.61 µg/mL) | 7.5 | 24 | 2.6 | Cc1cc(Nc2nc(N[C@@H](C)c3ccc(F)cc3)c(C#N)cc2F)n[nH]1 | GI50 [5]: 33 nM
4 | < 3 | 21 | 430 | 162 | 5 | 47 | 100 (≈ 37.2 µg/mL) | 2.3 | 40 | 0.52 | Cc1cc(Nc2nc(N[C@@H](C)c3ccc(F)cn3)c(C#N)cc2Cl)n[nH]1 | –
5 | < 3 | 7 | 1300 | 132 | 5 | 39 | 303 (≈ 108 µg/mL) | 4.8 | 36 | 0.84 | Cc1cc(Nc2nc(N[C@@H](C)c3ccc(F)cn3)c(C#N)cc2F)n[nH]1 | IC50 [12]: 82 nM; inhibition (Mus musculus [13]): Active; bioavailability [14]: 100%; IC50 [15]: < 1 nM; IC50 [16]: 15 nM; inhibition (Mus musculus [17]): Active; concentration at 6 h [18]: 328 ng/mL; IC50 [19]: 224 nM; IC50 [20]: 0.276 µM; inhibition (Mus musculus [21]): Active; Cp(f) [22]: 0.049 µM; fraction unbound [23]: 0.053; half-life [24]: 216 min; IC50 [25]: 215 nM; inhibition in vivo at 10 mg/kg (Mus musculus [26]): 54%; concentration at 2 h [27]: 1100 ng/mL; clearance [28]: 7.4 mL/min/kg; IC50 (Ephrin type-B receptor 2): > 10 µM; IC50 [29]: 3 nM; inhibition in vivo at 5 mg/kg (Mus musculus [30]): 54%
